# Where two headings read alike, the source gives them in different places.
# Experiment: Plasma concentrations (PK), Example 1
# Type: in vivo, human
# Procedure: For QD dosing, peak concentration was defined as any PK sample taken between 0.25 to <6 hours after the last morning dose and trough concentration was at least 20 hours after the last morning dose. For BID dosing, peak concentration was defined as any PK sample taken between 0.25 to <4 hours after the last dose and trough concentration was at least 8 hours after the last dose.
smiles,measurement,setting,value
"CC(=O)NCCCC[C@@H]1NC(=O)[C@H](Cc2c[nH]c3c(C)cccc23)NC(=O)[C@H]([C@@H](C)O)NC(=O)[C@H](CC(N)=O)NC(=O)[C@@H](NC(C)=O)C(C)(C)SSC(C)(C)[C@@H](C(=O)N[C@@H](Cc2ccc(OCCN)cc2)C(=O)N[C@@H](Cc2ccc3ccccc3c2)C(=O)NC2(C(=O)N[C@@H](CCC(=O)O)C(=O)N[C@@H](CC(N)=O)C(=O)N[C@@H](Cc3cccnc3)C(=O)N(C)CC(N)=O)CCOCC2)NC1=O [IL-23 receptor antagonist peptide, Ac-[Pen]*-N-T-[W(7-Me)]-[Lys(Ac)]-[Pen]*-Phe[4-(2-aminoethoxy)]-[2-Nal]-[THP]-E-N-[3-Pal]-Sarc-NH2 (*[Pen]-[Pen]* formdisulfidebond)]",Number of subjects with plasma concentration below LLOQ,"25 mg BID, Week 2, Intermediate",0
same,Number of subjects with plasma concentration below LLOQ,"25 mg BID, Week 2, Peak",0
same,Number of subjects with plasma concentration below LLOQ,"25 mg BID, Week 2, Trough",1 (100.0%)
same,Number of subjects with plasma concentration below LLOQ,"25 mg BID, Week 4, Intermediate",0
same,Number of subjects with plasma concentration below LLOQ,"25 mg BID, Week 4, Peak",0
same,Number of subjects with plasma concentration below LLOQ,"25 mg BID, Week 4, Trough",1 (100.0%)
same,Number of subjects with plasma concentration below LLOQ,"25 mg BID, Week 8, Intermediate",0
same,Number of subjects with plasma concentration below LLOQ,"25 mg BID, Week 8, Peak",1 (50.0%)
same,Number of subjects with plasma concentration below LLOQ,"25 mg BID, Week 8, Trough",2 (100.0%)
same,Number of subjects with plasma concentration below LLOQ,"25 mg BID, Week 12, Intermediate",0
same,Number of subjects with plasma concentration below LLOQ,"25 mg BID, Week 12, Peak",0
same,Number of subjects with plasma concentration below LLOQ,"25 mg BID, Week 12, Trough",2 (100.0%)
same,Number of subjects with plasma concentration below LLOQ,"25 mg BID, Week 16, Intermediate",0
same,Number of subjects with plasma concentration below LLOQ,"25 mg BID, Week 16, Peak",0
same,"Plasma concentration, Median","25 mg BID, Week 16, Peak",0.796 ng/mL
same,Number of subjects with plasma concentration below LLOQ,"25 mg BID, Week 16, Trough",1 (100.0%)
same,"Plasma concentration, Median","25 mg BID, Week 16, Trough",0.134 ng/mL
same,Number of subjects with plasma concentration below LLOQ,"25 mg QD, Week 1, Intermediate",0
same,Number of subjects with plasma concentration below LLOQ,"25 mg QD, Week 1, Peak",0
same,Number of subjects with plasma concentration below LLOQ,"25 mg QD, Week 1, Trough, LLOQ 0.02 ng/mL",3 (100.0%)
same,Number of subjects with plasma concentration below LLOQ,"25 mg QD, Week 2, Intermediate",0
same,Number of subjects with plasma concentration below LLOQ,"25 mg QD, Week 2, Peak",3 (100.0%)
same,Number of subjects with plasma concentration below LLOQ,"25 mg QD, Week 2, Trough",0
same,Number of subjects with plasma concentration below LLOQ,"25 mg QD, Week 4, Intermediate",0
same,Number of subjects with plasma concentration below LLOQ,"25 mg QD, Week 4, Peak",0
same,Number of subjects with plasma concentration below LLOQ,"25 mg QD, Week 4, Trough",3 (100.0%)
same,Number of subjects with plasma concentration below LLOQ,"25 mg QD, Week 8, Intermediate",0
same,Number of subjects with plasma concentration below LLOQ,"25 mg QD, Week 8, Peak",0)
same,Number of subjects with plasma concentration below LLOQ,"25 mg QD, Week 8, Trough",2 (100.0%)
same,Number of subjects with plasma concentration below LLOQ,"25 mg QD, Week 12, Intermediate",0
same,Number of subjects with plasma concentration below LLOQ,"25 mg QD, Week 12, Peak",0
same,Number of subjects with plasma concentration below LLOQ,"25 mg QD, Week 12, Trough",6
same,Number of subjects with plasma concentration below LLOQ,"25 mg QD, Week 16, Intermediate",0
same,Number of subjects with plasma concentration below LLOQ,"25 mg QD, Week 16, Peak",2
same,"Plasma concentration, Median","25 mg QD, Week 16, Peak",0.295 ng/mL
same,Number of subjects with plasma concentration below LLOQ,"25 mg QD, Week 16, Trough",2
same,"Plasma concentration, Median","25 mg QD, Week 16, Trough",0.057 ng/mL
same,Number of subjects with plasma concentration below LLOQ,"50 mg QD, Week 2, Intermediate",0
same,Number of subjects with plasma concentration below LLOQ,"50 mg QD, Week 2, Peak",1 (100.0%)
same,Number of subjects with plasma concentration below LLOQ,"50 mg QD, Week 2, Trough",0
same,Number of subjects with plasma concentration below LLOQ,"50 mg QD, Week 12, Intermediate",0
same,Number of subjects with plasma concentration below LLOQ,"50 mg QD, Week 12, Peak",0
same,Number of subjects with plasma concentration below LLOQ,"50 mg QD, Week 12, Trough",2 (100.0%)
same,Number of subjects with plasma concentration below LLOQ,"50 mg QD, Week 16, Intermediate",0
same,Number of subjects with plasma concentration below LLOQ,"50 mg QD, Week 16, Peak",0
same,"Plasma concentration, Median","50 mg QD, Week 16, Peak",0.917 ng/mL
same,Number of subjects with plasma concentration below LLOQ,"50 mg QD, Week 16, Trough",3 (100.0%)
same,"Plasma concentration, Median","50 mg QD, Week 16, Trough",0.089 ng/mL
same,Number of subjects with plasma concentration below LLOQ,"100 mg BID, Week 16, Intermediate",0
same,Number of subjects with plasma concentration below LLOQ,"100 mg BID, Week 16, Peak",0
same,"Plasma concentration, Median","100 mg BID, Week 16, Peak",1.970 ng/mL
same,Number of subjects with plasma concentration below LLOQ,"100 mg BID, Week 16, Trough",1 (100.0%)
same,"Plasma concentration, Median","100 mg BID, Week 16, Trough",0.451 ng/mL
same,Number of subjects with plasma concentration below LLOQ,"100 mg QD, Week 12, Intermediate",1 (33.3%)
same,Number of subjects with plasma concentration below LLOQ,"100 mg QD, Week 12, Peak",1 (33.3%)
same,Number of subjects with plasma concentration below LLOQ,"100 mg QD, Week 12, Trough",1 (33.3%)
same,Number of subjects with plasma concentration below LLOQ,"100 mg QD, Week 16, Intermediate",1 (33.3%)
same,Number of subjects with plasma concentration below LLOQ,"100 mg QD, Week 16, Peak",0
same,"Plasma concentration, Median","100 mg QD, Week 16, Peak",1.165 ng/mL
same,Number of subjects with plasma concentration below LLOQ,"100 mg QD, Week 16, Trough",2 (66.7%)
same,"Plasma concentration, Median","100 mg QD, Week 16, Trough",0.132 ng/mL
same,Effect of body weight on systemic exposure,"baseline body weight subgroups, through Week 16",not consistently evident that body weight has a major impact on systemic exposure
same,Drug accumulation (median trough concentrations),between Week 1 and 16,no apparent drug accumulation
same,level at 672 h,"human, plasma, oral, 25 mg, 25 mg BID, Week 4, Peak, read-out: Plasma concentration, Geometric Mean",0.539 ng/mL
same,level at 672 h,"human, plasma, oral, 25 mg, 25 mg BID, Week 4, Peak, read-out: Plasma concentration, Mean",0.655 ng/mL
same,level at 672 h,"human, plasma, oral, 25 mg, 25 mg BID, Week 4, Peak, read-out: Plasma concentration, Median",0.52 ng/mL
same,level at 1344 h,"human, plasma, oral, 25 mg, 25 mg BID, Week 8, Intermediate, read-out: Plasma concentration, Geometric Mean",0.092 ng/mL
same,level at 1344 h,"human, plasma, oral, 25 mg, 25 mg BID, Week 8, Intermediate, read-out: Plasma concentration, Mean",0.092 ng/mL
same,level at 1344 h,"human, plasma, oral, 25 mg, 25 mg BID, Week 8, Intermediate, read-out: Plasma concentration, Median",0.092 ng/mL
same,level at 1344 h,"human, plasma, oral, 25 mg, 25 mg BID, Week 8, Peak, read-out: Plasma concentration, Geometric Mean",0.483 ng/mL
same,level at 1344 h,"human, plasma, oral, 25 mg, 25 mg BID, Week 8, Peak, read-out: Plasma concentration, Mean",0.672 ng/mL
same,level at 1344 h,"human, plasma, oral, 25 mg, 25 mg BID, Week 8, Peak, read-out: Plasma concentration, Median",0.545 ng/mL
same,level at 1344 h,"human, plasma, oral, 25 mg, 25 mg BID, Week 8, Trough, read-out: Plasma concentration, Geometric Mean",0.151 ng/mL
same,level at 1344 h,"human, plasma, oral, 25 mg, 25 mg BID, Week 8, Trough, read-out: Plasma concentration, Mean",0.184 ng/mL
same,level at 1344 h,"human, plasma, oral, 25 mg, 25 mg BID, Week 8, Trough, read-out: Plasma concentration, Median",0.143 ng/mL
same,level at 2016 h,"human, plasma, oral, 25 mg, 25 mg BID, Week 12, Trough, read-out: Plasma concentration, Mean",0.202 ng/mL
same,level at 672 h,"human, plasma, oral, 25 mg, 25 mg QD, Week 4, Peak, read-out: Plasma concentration, Geometric Mean",0.469 ng/mL
same,level at 672 h,"human, plasma, oral, 25 mg, 25 mg QD, Week 4, Peak, read-out: Plasma concentration, Mean",0.591 ng/mL
same,level at 672 h,"human, plasma, oral, 25 mg, 25 mg QD, Week 4, Peak, read-out: Plasma concentration, Median",0.425 ng/mL
same,level at 1344 h,"human, plasma, oral, 25 mg, 25 mg QD, Week 8, Intermediate, read-out: Plasma concentration, Geometric Mean",0.168 ng/mL
same,level at 1344 h,"human, plasma, oral, 25 mg, 25 mg QD, Week 8, Intermediate, read-out: Plasma concentration, Mean",0.211 ng/mL
same,level at 1344 h,"human, plasma, oral, 25 mg, 25 mg QD, Week 8, Intermediate, read-out: Plasma concentration, Median",0.177 ng/mL
same,level at 1344 h,"human, plasma, oral, 25 mg, 25 mg QD, Week 8, Peak, read-out: Plasma concentration, Geometric Mean",0.284 ng/mL
same,level at 1344 h,"human, plasma, oral, 25 mg, 25 mg QD, Week 8, Peak, read-out: Plasma concentration, Mean",0.443 ng/mL
same,level at 1344 h,"human, plasma, oral, 25 mg, 25 mg QD, Week 8, Peak, read-out: Plasma concentration, Median",0.325 ng/mL
same,level at 1344 h,"human, plasma, oral, 25 mg, 25 mg QD, Week 8, Trough, read-out: Plasma concentration, Geometric Mean",0.061 ng/mL
same,level at 1344 h,"human, plasma, oral, 25 mg, 25 mg QD, Week 8, Trough, read-out: Plasma concentration, Mean",0.068 ng/mL

# Source: patent US20260232767A1, “INTERLEUKIN-23 RECEPTOR ANTAGONIST PEPTIDES FOR USE IN THE TREATMENT OF PSORIASIS” (Janssen Pharmaceutica NV, priority 2023, published 2026)
